# “Also recorded” adds a separate entry of the source.
# Columns and labels:
# [1] = tested on: CycK; experiment: CycK protein quantification by Western Blot; type: cell-based, human
# Method: 1×10^6 JIMT-1 cells were plated in 3mL of DMEM/FBS 90:10 (v/v) in 6-well plates and incubated overnight. Cells were treated with the compound 2384 of the invention with or without the proteasome inhibitor MG-132 (MedChemExpress, Cat HY-13259) for 2h. Cells were harvested, and protein were extracted using complete RIPA buffer (RIPA buffer, 1 mM DTT, 1M NaF, 100 mM sodium orthovanadate, phosphatase inhibitor buffer and protease inhibitors) for 1 hour on ice. Lysate were centrifuged 15min at 12 000g at 4°C. and proteins were mixed with 4x Laemmli Sample Buffer (Bio-Rad), heated at 95 °C for 5 mins and separated by SDS PAGE (PROTEAN TGX Stain-Free Gels, Bio-Rad). Proteins were then transferred onto PVDF membrane (iBlot®2 PVDF stacks, Invitrogen) using the iBlot2 device (Invitrogen) and blocked with TBS buffer (Intercept® Blocking Buffer, LI-COR Biosciences). Primary antibodies were incubated overnight at 4°C and secondary antibodies (IRDye Infrared Dyes from LI-COR Biosciences) 1 hour at room temperature. Used primary antibody were: anti-CycK (cat#A301-939A, Bethyl Laboratories, dil. 1:1000) and anti-β-actin (cat#A5441, Sigma-Aldrich, dil. 1:5000). Membranes were scanned using a c500 Imaging System (Azure Biosystems) and densitometric quantification were performed using imaged software. Protein levels were normalized against β-actin.
# [2] = tested on: cancerous human cell lines; experiment: In vitro cytotoxicity assay (MTT), side-by-side comparisons over the cell line panel; type: cell-based; conditions: side-by-side comparison (Figures 1-3, Table 3), result in words
# Method: In vitro cytotoxicity of compounds of the disclosure was assessed on several cancerous human cell lines. Cells were plated in 96-well plates at an appropriate density depending on the cell line (between 1000 and 10 000 cells/well in 100µL of appropriate culture media) and incubated at 37°C for 24 hours. Serial dilutions of the tested compound previously dissolved in culture media (50µL) were added, and incubation was carried at 37°C out for 6 days. MTT (5mg/mL in PBS, 20µL, Sigma-Aldrich) was added into the wells, and incubation was continued for 1 to 4 hours at 37°C. Culture media was then carefully removed, and well content was homogeneously dissolved with acidified isopropanol. Absorbance values were measured on a microplate reader using a wavelength of 570 nm (with a reference wavelength of 690 nm). The IC50 concentration values compared to untreated control cells were determined using inhibition dose response curve fitting (GraphPad Prism 9). Exatecan mesylate (cat#HY-13631A) and CR8 (CAS# 294646-77-8; cat#HY-18340) were purchased from MedChemExpress (China).
# [3] = tested on: JIMT-1 cells; experiment: Cell cycle arrest assessment (propidium iodide); type: cell-based, human; conditions: 24h at 2, 5, 10, and 50nM
# Method: 1×10^6 JIMT-1 cells were plated in 3mL of DMEM/FBS 90:10 (v/v) in 6-well plates and incubated overnight. Cells were treated with the compound 2384 of the invention or with CR8 for 24h. Cells were then harvested and washed three times with PBS. Cells were suspended into 300µL of propidium iodide working solution (0.05mg/mL) and incubated for 45 minutes at 4°C in the dark. Analysis was performed using a BD Fortessa flow cytometer controlled by BD FACSDiva software (BD Biosciences) and data were analyzed using FlowJo software (BD Bioscience).
# [4] = tested on: NCI-N87; experiment: In vitro cytotoxicity assay (MTT); type: cell-based, human; conditions: Homo sapiens, 144 h, 6 days incubation
# In short: (§1)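 Cancer cell lines seeded (1000–10 000 cells/well), allowed 24 h at 37°C, then exposed to serial compound dilutions for 6 days at 37°C. Viability by MTT (1–4 h), formazan dissolved in acidified isopropanol, absorbance 570 nm (ref. 690 nm); IC50 from dose-response fit versus untreated cells.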
# [5] = tested on: SKBR-3; experiment: In vitro cytotoxicity assay (MTT); type: cell-based, human; conditions: Homo sapiens, SK-BR-3, 144 h, 6 days incubation
# In short: as §1
# [6] = tested on: MDA-MB-453; experiment: In vitro cytotoxicity assay (MTT); type: cell-based, human; conditions: Homo sapiens, 144 h, 6 days incubation
# In short: as §1
# [7] = tested on: MDA-MB-231; experiment: In vitro cytotoxicity assay (MTT); type: cell-based, human; conditions: Homo sapiens, 144 h, 6 days incubation
# In short: as §1
# [8] = tested on: JIMT-1; experiment: In vitro cytotoxicity assay (MTT); type: cell-based, human; conditions: Homo sapiens, 144 h, 6 days incubation
# In short: as §1
# [9] = tested on: BT-474; experiment: In vitro cytotoxicity assay (MTT); type: cell-based, human; conditions: Homo sapiens, BT-474, 144 h
# In short: as §1
# [10] = molecular target: T1, CDK12/CycK (Homo sapiens, UniProt Q9NYV4); experiment: IC50 profiling on top 25 protein kinases; type: biochemical; conditions: titration from 0.1 nM to 10 000 nM
# T1 construct: GST-fusion or His-tag (not given for this kinase); purchased Reaction Biology, Germany; host or cells: Sf9 insect cells or E.coli
# Method: (§2) Compound 2384 according to the disclosure was subjected to kinase screening assays (performed at Reaction Biology, Germany). […] A radiometric protein kinase assay (33PanQinase® ActivityAssay) was used for measuring the kinase activity of 340 protein kinases. All kinase assays were performed in 96-well FlashPlates™ from Perkin Elmer (Boston, MA, USA) in a 50 µL reaction volume. […] All PKC assays (except the PKC-mu and the PKC-nu assay) additionally contained 1 mM CaCl2, 4 mM EDTA, 5 µg/m! Phosphatidylserine and 1 µg/m! 1,2-Dioleyl-glycerol. The CAMK1D, CAMK2A, CAMK2B, CAMK2D, CAMK2G, CAMK4, CAMKK1, CAMKK2, DAPK2, EEF2K, MYLK, MYLK2 and MYLK3 assays additionally contained 1 µg/ml Calmodulin and 0.5 mM CaCl2. The PRKG1 and PRKG2 assays additionally contained 1 µM cGMP. The DNA-PK assay additionally contained 2.5 µg/ml DNA. The protein kinase reaction cocktails were incubated at 30°C for 60 minutes. The reaction was stopped with 50 µl of 2 % (v/v) H3PO4, plates were aspirated and washed two times with 200 µL 0.9 % (w/v) NaCl. Incorporation of 33Pi (counting of "cpm") was determined with a microplate scintillation counter (Microbeta, Wallac). All protein kinase assays were performed with a BeckmanCoulter Biomek 2000/SL robotic system. All protein kinases provided by RBE were expressed in Sf9 insect cells or in E.coli as recombinant GST-fusion proteins or His-tagged proteins, either as full-length or enzymatically active fragments. All kinases were produced from human cDNAs and purified by either GSH-affinity chromatography or immobilized metal. Affinity tags were removed from a number of kinases during purification. The purity of the protein kinases was examined by SDS-PAGE/Coomassie staining, the identity was checked by mass spectroscopy. Kinases from external vendors were expressed, purified and quality-controlled. Staurosporine was used as positive control.
# (§3) Staurosporine was used as positive control.
# [11] = molecular target: T2, CDK13/CycK (Homo sapiens, UniProt Q14004); experiment: IC50 profiling on top 25 protein kinases; type: biochemical; conditions: titration from 0.1 nM to 10 000 nM
# T2 construct: GST-fusion or His-tag (not given for this kinase); purchased Reaction Biology, Germany; host or cells: Sf9 insect cells or E.coli
# Method: as §2, §3
# [12] = molecular target: T3, CDK9/CycK (Homo sapiens, UniProt P50750); experiment: IC50 profiling on top 25 protein kinases; type: biochemical; conditions: titration from 0.1 nM to 10 000 nM
# T3 construct: GST-fusion or His-tag (not given for this kinase); purchased Reaction Biology, Germany; host or cells: Sf9 insect cells or E.coli
# Method: as §2, §3
# [13] = molecular target: T4, CDK9/CycT1 (Homo sapiens, UniProt P50750); experiment: IC50 profiling on top 25 protein kinases; type: biochemical; conditions: titration from 0.1 nM to 10 000 nM
# T4 construct: GST-fusion or His-tag (not given for this kinase); purchased Reaction Biology, Germany; host or cells: Sf9 insect cells or E.coli
# Method: as §2, §3
# T2 sequence (Q14004 whole entry, the tested form may be a part): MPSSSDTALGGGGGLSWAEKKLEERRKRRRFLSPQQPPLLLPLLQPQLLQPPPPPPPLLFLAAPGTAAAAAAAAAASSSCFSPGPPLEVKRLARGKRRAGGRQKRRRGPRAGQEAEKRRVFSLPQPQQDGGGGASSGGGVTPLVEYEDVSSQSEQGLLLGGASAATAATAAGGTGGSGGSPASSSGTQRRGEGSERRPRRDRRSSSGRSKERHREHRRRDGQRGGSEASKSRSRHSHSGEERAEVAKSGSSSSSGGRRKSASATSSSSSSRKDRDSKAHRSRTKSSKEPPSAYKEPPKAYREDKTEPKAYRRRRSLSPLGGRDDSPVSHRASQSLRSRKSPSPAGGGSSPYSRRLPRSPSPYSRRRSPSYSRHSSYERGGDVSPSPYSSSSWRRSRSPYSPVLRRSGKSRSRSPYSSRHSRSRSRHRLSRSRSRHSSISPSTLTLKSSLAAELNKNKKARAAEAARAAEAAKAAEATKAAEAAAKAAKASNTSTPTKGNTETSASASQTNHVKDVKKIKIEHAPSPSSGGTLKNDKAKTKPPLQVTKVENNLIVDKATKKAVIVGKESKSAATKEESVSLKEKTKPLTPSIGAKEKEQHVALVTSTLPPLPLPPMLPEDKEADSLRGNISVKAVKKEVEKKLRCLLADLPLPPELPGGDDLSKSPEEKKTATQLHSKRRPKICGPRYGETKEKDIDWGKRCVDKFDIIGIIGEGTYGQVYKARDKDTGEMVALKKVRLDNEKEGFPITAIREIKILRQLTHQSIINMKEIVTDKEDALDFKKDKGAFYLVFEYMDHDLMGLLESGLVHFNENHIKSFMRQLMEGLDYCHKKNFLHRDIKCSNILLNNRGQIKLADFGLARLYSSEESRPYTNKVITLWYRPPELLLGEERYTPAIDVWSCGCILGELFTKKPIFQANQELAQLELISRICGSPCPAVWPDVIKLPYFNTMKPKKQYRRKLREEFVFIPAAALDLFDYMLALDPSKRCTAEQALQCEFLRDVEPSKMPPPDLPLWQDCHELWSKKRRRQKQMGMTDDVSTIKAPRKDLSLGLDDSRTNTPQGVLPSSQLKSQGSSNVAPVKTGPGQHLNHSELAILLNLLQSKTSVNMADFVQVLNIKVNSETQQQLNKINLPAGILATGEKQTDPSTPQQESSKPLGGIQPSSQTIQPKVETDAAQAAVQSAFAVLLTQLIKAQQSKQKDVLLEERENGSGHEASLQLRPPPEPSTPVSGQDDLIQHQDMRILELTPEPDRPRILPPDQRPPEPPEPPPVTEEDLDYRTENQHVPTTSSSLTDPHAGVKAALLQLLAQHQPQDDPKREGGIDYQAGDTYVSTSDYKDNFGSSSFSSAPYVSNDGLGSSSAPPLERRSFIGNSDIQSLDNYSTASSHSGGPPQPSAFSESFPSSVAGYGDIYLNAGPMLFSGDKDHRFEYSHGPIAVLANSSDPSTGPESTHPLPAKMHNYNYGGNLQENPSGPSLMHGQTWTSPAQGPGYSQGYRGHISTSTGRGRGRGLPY
# T2 sequence (O75909 whole entry partner, the tested form may be a part): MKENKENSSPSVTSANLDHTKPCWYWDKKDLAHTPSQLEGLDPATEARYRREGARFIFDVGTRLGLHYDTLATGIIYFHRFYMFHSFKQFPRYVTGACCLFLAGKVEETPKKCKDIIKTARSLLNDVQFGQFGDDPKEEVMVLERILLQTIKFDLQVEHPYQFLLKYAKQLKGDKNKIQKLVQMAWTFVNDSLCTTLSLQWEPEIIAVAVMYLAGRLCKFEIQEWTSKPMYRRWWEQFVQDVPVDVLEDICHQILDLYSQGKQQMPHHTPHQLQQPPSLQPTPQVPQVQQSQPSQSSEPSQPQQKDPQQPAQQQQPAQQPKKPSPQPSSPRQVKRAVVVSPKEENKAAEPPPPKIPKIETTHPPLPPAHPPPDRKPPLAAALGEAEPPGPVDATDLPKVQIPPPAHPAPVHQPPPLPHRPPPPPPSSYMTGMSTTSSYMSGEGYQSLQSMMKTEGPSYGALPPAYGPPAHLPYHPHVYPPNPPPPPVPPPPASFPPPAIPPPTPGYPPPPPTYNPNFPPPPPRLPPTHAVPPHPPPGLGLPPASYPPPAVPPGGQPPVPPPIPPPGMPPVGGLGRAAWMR
# T4 sequence (P50750 whole entry, the tested form may be a part): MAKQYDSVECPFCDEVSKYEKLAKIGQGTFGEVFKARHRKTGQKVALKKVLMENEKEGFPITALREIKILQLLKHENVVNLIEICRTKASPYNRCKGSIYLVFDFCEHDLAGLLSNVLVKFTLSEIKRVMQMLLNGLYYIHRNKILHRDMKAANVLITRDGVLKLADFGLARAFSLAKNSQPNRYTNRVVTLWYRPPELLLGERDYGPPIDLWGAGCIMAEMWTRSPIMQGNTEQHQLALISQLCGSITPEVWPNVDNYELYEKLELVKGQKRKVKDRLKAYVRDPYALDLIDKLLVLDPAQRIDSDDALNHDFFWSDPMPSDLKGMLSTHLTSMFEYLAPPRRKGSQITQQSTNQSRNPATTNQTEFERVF
# T4 sequence (O60563 whole entry partner, the tested form may be a part): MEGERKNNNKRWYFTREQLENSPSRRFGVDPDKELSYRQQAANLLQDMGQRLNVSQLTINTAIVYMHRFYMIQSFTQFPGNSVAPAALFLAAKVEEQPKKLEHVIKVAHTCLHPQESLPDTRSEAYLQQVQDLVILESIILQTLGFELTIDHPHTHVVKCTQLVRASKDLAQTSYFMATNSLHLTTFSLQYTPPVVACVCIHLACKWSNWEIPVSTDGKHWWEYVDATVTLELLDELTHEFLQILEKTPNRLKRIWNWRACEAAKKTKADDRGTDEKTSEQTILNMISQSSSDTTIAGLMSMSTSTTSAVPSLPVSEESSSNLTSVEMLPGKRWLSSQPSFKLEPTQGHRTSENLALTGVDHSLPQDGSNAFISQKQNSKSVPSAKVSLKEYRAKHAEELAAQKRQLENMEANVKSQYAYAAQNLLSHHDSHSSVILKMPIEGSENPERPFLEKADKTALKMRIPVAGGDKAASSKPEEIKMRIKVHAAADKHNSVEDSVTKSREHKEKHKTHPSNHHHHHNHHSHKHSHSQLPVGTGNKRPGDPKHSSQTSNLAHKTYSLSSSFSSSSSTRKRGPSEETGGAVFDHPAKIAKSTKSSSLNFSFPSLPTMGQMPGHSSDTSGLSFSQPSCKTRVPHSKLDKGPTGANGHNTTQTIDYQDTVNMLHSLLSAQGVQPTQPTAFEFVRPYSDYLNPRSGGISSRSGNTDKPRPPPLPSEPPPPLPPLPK
# T3 sequence (P50750 whole entry, the tested form may be a part): as the sequence (P50750 whole entry, the tested form may be a part) above
# T3 sequence (O75909 whole entry partner, the tested form may be a part): as the sequence (O75909 whole entry partner, the tested form may be a part) above
# T1 sequence (Q9NYV4 whole entry, the tested form may be a part): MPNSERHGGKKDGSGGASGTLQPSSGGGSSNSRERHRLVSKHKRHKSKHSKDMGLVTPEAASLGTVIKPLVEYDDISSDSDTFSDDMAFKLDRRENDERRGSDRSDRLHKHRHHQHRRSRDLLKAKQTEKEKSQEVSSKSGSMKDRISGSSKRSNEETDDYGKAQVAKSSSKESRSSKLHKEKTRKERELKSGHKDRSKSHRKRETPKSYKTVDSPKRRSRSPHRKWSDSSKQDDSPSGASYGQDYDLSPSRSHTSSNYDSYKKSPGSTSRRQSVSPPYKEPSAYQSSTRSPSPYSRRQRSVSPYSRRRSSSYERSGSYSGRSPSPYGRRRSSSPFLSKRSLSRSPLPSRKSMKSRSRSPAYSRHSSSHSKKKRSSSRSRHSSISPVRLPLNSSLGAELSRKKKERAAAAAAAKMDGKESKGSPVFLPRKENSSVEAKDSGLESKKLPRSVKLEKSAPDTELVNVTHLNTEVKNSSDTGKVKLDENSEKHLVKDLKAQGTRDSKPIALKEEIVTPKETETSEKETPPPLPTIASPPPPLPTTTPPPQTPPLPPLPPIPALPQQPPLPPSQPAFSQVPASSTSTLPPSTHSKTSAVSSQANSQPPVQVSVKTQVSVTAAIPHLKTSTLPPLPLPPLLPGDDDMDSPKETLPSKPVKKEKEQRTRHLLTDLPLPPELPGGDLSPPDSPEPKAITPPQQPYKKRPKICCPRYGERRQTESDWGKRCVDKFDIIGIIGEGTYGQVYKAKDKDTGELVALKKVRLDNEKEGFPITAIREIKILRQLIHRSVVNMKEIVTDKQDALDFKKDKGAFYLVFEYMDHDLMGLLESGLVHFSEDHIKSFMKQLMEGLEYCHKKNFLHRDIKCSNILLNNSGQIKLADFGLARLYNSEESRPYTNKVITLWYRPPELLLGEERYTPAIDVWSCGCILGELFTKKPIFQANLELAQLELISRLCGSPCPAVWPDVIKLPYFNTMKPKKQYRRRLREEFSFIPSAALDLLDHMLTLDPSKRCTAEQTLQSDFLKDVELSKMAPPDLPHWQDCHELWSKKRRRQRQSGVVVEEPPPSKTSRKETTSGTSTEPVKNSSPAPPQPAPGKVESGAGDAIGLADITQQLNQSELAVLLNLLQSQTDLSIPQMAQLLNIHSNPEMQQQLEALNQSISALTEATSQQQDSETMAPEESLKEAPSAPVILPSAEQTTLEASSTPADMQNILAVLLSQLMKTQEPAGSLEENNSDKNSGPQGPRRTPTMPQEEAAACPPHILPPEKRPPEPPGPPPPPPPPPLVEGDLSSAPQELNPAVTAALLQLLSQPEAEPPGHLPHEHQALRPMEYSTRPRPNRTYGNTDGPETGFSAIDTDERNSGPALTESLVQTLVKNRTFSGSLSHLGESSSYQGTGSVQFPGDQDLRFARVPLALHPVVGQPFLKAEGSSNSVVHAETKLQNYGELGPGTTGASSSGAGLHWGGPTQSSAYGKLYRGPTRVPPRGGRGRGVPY
# T1 sequence (O75909 whole entry partner, the tested form may be a part): as the sequence (O75909 whole entry partner, the tested form may be a part) above
smiles,measurement,setting,value
N[C@H]1CC[C@H](Nc2nc(NCc3ccc(-c4ccccn4)cc3)n3ncc(Br)c3n2)CC1 [Compound 2384],CycK degradation,"[1]; 10nM, 2h treatment of JIMT-1 cells",complete CycK degradation
same,CycK protein content,"[1]; JIMT-1 cells, 1µM, 2h",decreased CycK protein content
same,minimum effective dose for CycK degradation compared with CR8,"[1]; JIMT-1 cells, 2h",approximately 10 times lower
same,CycK protein content,"[1]; JIMT-1 cells, combination with the proteasome inhibitor MG-132, 2h",restored the content in cycK protein
same,in vitro cytotoxicity potency,[2],more potent compared to its isopropyl counterpart; also recorded: drastically improved low nanomolar potencies
same,cell cycle analysis,[3],arrest in the G2/M phase
same,IC50,[4],760 pM
same,IC50,[5],730 pM
same,IC50,[6],530 pM
same,IC50,[7],380 pM
same,IC50,[8],250 pM
same,IC50,[9],940 pM
same,IC50,[10],< 25000 pM
same,IC50,[11],< 25000 pM
same,IC50,[12],< 25000 pM
same,IC50,[13],< 25000 pM

# From patent EP4512427A1, “ANTIBODY-DRUG CONJUGATES BASED ON MOLECULAR GLUE DEGRADERS AND USES THEREOF” (Mablink Bioscience, priority 2023, dated 2025)
